Data published in patent publication US3935236A, “Aminopropanol substituted isochromanones and phthalides” (Gruppo Lepetit, S.p.A., priority 1973, dated 1976).
Read-outs that look alike come from different tables or passages of the source.

Assays:
β-receptors = target: T1, β-receptors (Canis lupus familiaris, UniProt P79148); assay: antagonizing isopropylnoradrenaline induced tachycardia in conscious dogs (i.v.); type: in vivo; settings: dog, iv, read-out: ED50 in antagonizing isopropylnoradrenaline induced tachycardia
T1 construct: tachycardia in conscious dogs; from tissue; host or cells: heart in the living conscious dog (in vivo, i.v. dosing)
From the text: As a standard compound pronethalol was taken into consideration. Pronethalol, i.e. 2-isopropylamino-1-([…])-ethanol, is a known β-blocking agent.

LD50 os (acute toxicity) = settings: in vivo, po

T1 sequence (P79148 whole entry): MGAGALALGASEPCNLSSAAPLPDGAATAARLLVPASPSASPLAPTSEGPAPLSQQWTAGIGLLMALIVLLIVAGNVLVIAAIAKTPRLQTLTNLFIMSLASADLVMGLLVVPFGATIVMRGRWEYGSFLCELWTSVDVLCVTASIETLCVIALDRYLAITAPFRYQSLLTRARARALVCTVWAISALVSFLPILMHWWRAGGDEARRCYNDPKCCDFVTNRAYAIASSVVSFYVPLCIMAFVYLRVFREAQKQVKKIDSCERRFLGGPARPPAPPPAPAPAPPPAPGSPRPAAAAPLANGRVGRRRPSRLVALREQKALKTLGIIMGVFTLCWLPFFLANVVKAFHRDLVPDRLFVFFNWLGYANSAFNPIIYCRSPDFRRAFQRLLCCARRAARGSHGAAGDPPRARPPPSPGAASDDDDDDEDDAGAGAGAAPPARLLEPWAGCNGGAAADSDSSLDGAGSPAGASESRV

SMILES: CC(C)NCC(O)COc1cccc2c1C(=O)OC2.Cl (centres unmarked) [Example 1, 7-(2-Hydroxy-3-isopropylamino-propoxy)-phthalide hydrochloride]
- ED50 (β-receptors): 0.01 mg/kg
- LD50 (LD50 os (acute toxicity)): > 500 mg/kg

SMILES: CC(C)NCC(O)COc1ccc2c(c1)C(=O)OC2 (centres unmarked) [Example 2, 6-(2-Hydroxy-3-isopropylamino-propoxy)-phthalide]
- ED50 (β-receptors; conscious dogs, i.v.): 0.3 mg/kg
- LD50 (LD50 os (acute toxicity)): > 500 mg/kg

SMILES: CC(C)(C)NCC(O)COc1cccc2c1C(=O)OC2.Cl (centres unmarked) [Example 5, 7-(2-Hydroxy-3-tert-butylamino-propoxy)-phthalide hydrochloride]
- LD50 (LD50 os (acute toxicity)): > 500 mg/kg

SMILES: CC(C)NCC(O)COc1ccc2c(c1)C(=O)OCC2.Cl (centres unmarked) [Example 6, 7-(2-Hydroxy-3-isopropylamino-propoxy)-1-isochromanone hydrochloride]
- ED50 (β-receptors): 0.1 mg/kg
- LD50 (LD50 os (acute toxicity)): > 500 mg/kg

SMILES: CC(C)(C)NCC(O)COc1ccc2c(c1)C(=O)OCC2.Cl (centres unmarked) [Example 7, 7-(2-Hydroxy-3-tert-butylamino-propoxy)-1-isochromanone hydrochloride]
- ED50 (β-receptors): 0.055 mg/kg
- LD50 (LD50 os (acute toxicity)): > 500 mg/kg

SMILES: CC(C)(C)NCC(O)COc1cccc2c1COC2=O.Cl (centres unmarked) [Example 8, 4-(2-Hydroxy-3-tert-butylaminopropoxy)-phthalide hydrochloride]
- ED50 (β-receptors): 0.07 mg/kg
- LD50 (LD50 os (acute toxicity)): > 500 mg/kg

SMILES: CC(C)(C)NCC(O)COc1ccc2c(c1)C(=O)OC2.Cl (centres unmarked) [Example 9, 6-(2-Hydroxy-3-tert-butylamino-propoxy)-phthalide hydrochloride]
- ED50 (β-receptors): 0.1 mg/kg
- LD50 (LD50 os (acute toxicity)): > 500 mg/kg

SMILES: CC(C)CNCC(O)COc1cccc2c1C(=O)OC2.Cl (centres unmarked) [Example 10, 7-(2-Hydroxy-3-isobutylamino-propoxy)-phthalide hydrochloride]
- ED50 (β-receptors): 0.1 mg/kg
- LD50 (LD50 os (acute toxicity)): > 500 mg/kg

SMILES: CC(C)(C)NCC(O)COc1cccc2c1C(=O)OCC2.Cl (centres unmarked) [Example 12, 8-(2-Hydroxy-3-tert-butylamino-propoxy)-1-isochromanone hydrochloride]
- ED50 (β-receptors): 0.003 mg/kg
- LD50 (LD50 os (acute toxicity)): > 500 mg/kg

SMILES: COc1cc(OCC(O)CNC(C)(C)C)c2c(c1)C(=O)OC(C)C2.Cl (centres unmarked) [Example 13, 5-(2-Hydroxy-3-tert-butylamino-propoxy)-7-methoxy-3-methyl-1-isochromanone hydrochloride]
- ED50 (β-receptors): 0.005 mg/kg
- LD50 (LD50 os (acute toxicity)): > 500 mg/kg

SMILES: CCC1Cc2c(OCC(O)CNC(C)(C)C)cc(OC)cc2C(=O)O1.Cl (centres unmarked) [Example 14, 3-Ethyl-5-(2-hydroxy-3-tert-butylamino-propoxy)-7-methoxy-1-isochromanone hydrochloride]
- ED50 (β-receptors): 0.1 mg/kg
- LD50 (LD50 os (acute toxicity)): > 500 mg/kg

SMILES: COc1cc(OCC(O)CNC(C)(C)C)c2c(c1)C(=O)OC(C)(C)C2.O=C(O)C(=O)O (centres unmarked) [Example 15, 5-(2-Hydroxy-tert-butylamino-propoxy)-7-methoxy-3,3-dimethyl-1-isochromanone oxalate]
- ED50 (β-receptors): 0.018 mg/kg
- LD50 (LD50 os (acute toxicity)): > 500 mg/kg
